These are literature values, as cited in patent US20160045473A1, “Biological Basis Of Adult Wellness” (priority 2012, published 2016).

The conditions of this data set: healthy volunteers, at least one study.

On to `O=C(O)[C@@H]1CCCN1` [proline, L-proline], for which the absorption entry is recorded as “well absorbed”.
